{
  "source": "ChEMBL document CHEMBL1177793",
  "about": "“Synthesis and evaluation of novel phosphate ester analogs as neutral sphingomyelinase inhibitors” (Bioorg Med Chem Lett, 2010)",
  "key": {"Bacillus cereus [1]": {"system": "Bacillus cereus", "experiment": "Inhibition of Bacillus cereus sphingomyelinase expressed in Bacillus subtilis ISW1214 assessed as sphingomyeline liposome degradation at 20 to 100 uM after 30 mins"}, "[2]": {"experiment": "Competitive inhibition of Bacillus cereus sphingomyelinase expressed in Bacillus subtilis ISW1214 after 30 mins by Lineweaver-Burke plot analysis"}, "Bacillus cereus [3]": {"system": "Bacillus cereus", "experiment": "Inhibition of Bacillus cereus sphingomyelinase expressed in Bacillus subtilis ISW1214 assessed as sphingomyeline liposome degradation after 30 mins"}, "[4]": {"experiment": "Inhibition of Bacillus cereus sphingomyelinase expressed in Bacillus subtilis ISW1214 assessed as [14C]sphingomyeline hydrolysis after 30 mins by liquid scintillation counting"}},
  "note": "The source made the active and inactive calls. No cut-off for these calls is given here.",
  "data": [
    {"smiles": "c1ccc(-c2ccccn2)nc1", "values": [
      {"measurement": "inhibition", "setting": "Bacillus cereus [1]", "value": "inactive"}
    ]},
    {"smiles": "CCCCCCCCCCCCC/C=C/[C@@H](OCc1cccc(-c2ccccn2)n1)[C@H](CO)NC(=O)CCCCC", "values": [
      {"measurement": "inhibition", "setting": "Bacillus cereus [1]", "value": "inactive"}
    ]},
    {"smiles": "CCCCCCCCCCCCC/C=C/[C@@H](O)[C@H](COCc1cccc(-c2ccccn2)n1)NC(=O)CCCCC", "values": [
      {"measurement": "Ki", "setting": "[2]", "value": 5.2, "unit": "µM"},
      {"measurement": "inhibition", "setting": "Bacillus cereus [3]", "value": "Dose-dependent effect"},
      {"measurement": "IC50", "setting": "[4]", "value": 1.2, "unit": "µM"}
    ]}
  ]
}
